Results taken from US10351613B2, “Polypeptide for inhibition of tumor” (G-Bio Pharma Tech Co., Ltd., priority 2015, dated 2019).
Values after ≈ are worked out from the molar mass of the structure shown. Residues, ends and D or L forms follow the SMILES beside them.

Experiments:
[1] = test system: Human Umbilical Vein Endothelial Cell (HUVEC); assay type: cell-based
Procedure: 20 cm umbilical cord adjacent to fetus was taken, cleaned by washing, ligated at both ends, placed into 150 ml preservation solutions for umbilical cord, and stored in a 4° C. refrigerator for digestion for 6 hours. The umbilical cord was inspected to remove the damaged portion. The umbilical vein was thoroughly cleaned by washing and then 10 ml collagenase solution was injected. Then the umbilical vein was transferred to a 37° C. incubator for digestion for 15 minutes. The umbilical cord was removed and the digested solution was recovered. The digested solution was washed by PBS and centrifuged. After centrifugation, the cells were culture by re-suspension.
(§1) Inhibition of cell growth was detected by a MTT method, which is based on the principle that succinate dehydrogenase in the mitochondria of the live cells could reduce the exogenous MTT (3-(4,5-dimethyl-2-thiazolyl)-2,5-diphenyl-tetrazolium bromide) to a […] Formazan which is a blue-violet crystal, and precipitates in the cells, while the death cells could not reduce MTT. DMSO could dissolve Formazan in the cells. Absorbance value of the solution was determined at 490/570 nm by microplate reader, which could indirectly indicate the amount of the live cells. The amount of the crystal from MTT is proportional to the amount of the cells within a certain range of cell number. The supernate from the HUVEC or tumor cells in exponential phase was removed and the cells were washed by PBS once. 1 ml 0.25% trypsin (4° C.) was added for digestion at 37° C. for 2 min. Then the supernate was added for neutralization and the cells were dispersed to form a suspension and the suspension was centrifuged at 1000 rpm for 3 min. The supernate was removed and 5 ml culture mediums were added for resuspension. Cells were inoculated in a 48-well plate by 500 ul/well at the concentration of 3×10^4/ml and then incubated under 5% CO2, 37° C. for 24 hours. The supernate was removed and a culture medium containing polypeptide (Zn^2+ in the culture medium was present at the concentration of 17.39 μmol/L) was added for further incubation for 48 hours. Supernate in each well was carefully removed. The well was gently washed by PBS once in an amount of 450 μl/well. 450 μl MTT culture mediums were added into each well for further cultivation for 4 hours. The supernate was carefully discarded. DMSO was added in an amount of 450 μl/well and then the plate was placed in a shaking bed for oscillation for 10 min in dark. 150 μl supernates were transferred to a 96-well ELISA plate and absorbance value of each well was detected at 490 nm and 570 nm by the microplate reader.

tumor cell HepG2 = assay type: cell-based
Procedure: as §1

LS174T (Colon cancer) = assay type: cell-based
Procedure: as §1
(§2) P2 (SEQ ID NO:2) and P2T2S18 (SEQ ID NO:6) were tested for their in vitro inhibition on SMMC7221, SPC-A-1, A549, LS174T, BEL7402, CK-MES-1 and BxPC-3 at a polypeptide concentration of 1 mg/ml according to the method described in Example 3. Results are shown in FIG. 9 and the following Table. […] All IC50 concentrations for P2T2S18 are less than 1/10 IC50 concentration of P2.

SPC-A-1 (lung carcinoma) = assay type: cell-based; conditions: for IC50: SPC-A-1; for Cell Survival (%) at a polypeptide concentration of 1 mg/ml: SPC-A-1, 1 mg/ml
Procedure: as §1, §2

A549 (lung carcinoma) = experiment: MTT in vitro inhibition of A549; assay type: cell-based; conditions: for IC50: A549; for Cell Survival (%) at a polypeptide concentration of 1 mg/ml: A549, 1 mg/ml
Procedure: as §1, §2

[2] = test system: CK-MES-1 (lung squamous cell carcinoma); experiment: MTT in vitro inhibition of CK-MES-1; assay type: cell-based; conditions: for IC50: CK-MES-1; for Cell Survival (%) at a polypeptide concentration of 1 mg/ml: CK-MES-1, 1 mg/ml
Procedure: as §1, §2

BEL7402 (Liver cancer) = experiment: MTT in vitro inhibition of BEL7402; assay type: cell-based; conditions: for IC50: BEL7402; for Cell Survival (%) at a polypeptide concentration of 1 mg/ml: BEL7402, 1 mg/ml
Procedure: as §1, §2

SMMC7721 (Liver cancer) = experiment: MTT in vitro inhibition of SMMC7721; assay type: cell-based; conditions: for IC50: SMMC7721; for Cell Survival (%) at a polypeptide concentration of 1 mg/ml: SMMC7721, 1 mg/ml
Procedure: as §1, §2

[3] = test system: BxPC-3 (pancreatic cancer); experiment: MTT in vitro inhibition of BxPC-3; assay type: cell-based; conditions: for IC50: BxPC-3; for Cell Survival (%) at a polypeptide concentration of 1 mg/ml: BxPC-3, 1 mg/ml
Procedure: as §1, §2

[4] = test system: lung cancer cell line SPC-A-1; experiment: In vitro death of SPC-A-1 tumor cell observed under optical microscope; assay type: cell-based; conditions: SPC-A-1, 2.5 mg/ml
Procedure: Polypeptides were tested for their effect in inducing cell death of lung cancer cell line SPC-A-1 at a polypeptide concentration of 2.5 mg/ml according to the method described in Example 3. Cells were observed under an optical microscope over 24 hours and photos were taken. P2 exerts its function 4 hours after being added into the culture medium. […] On the contrary, they extremely swelled. 4 hours later cells further swelled and began to disintegrate at 8 hours. […] The manner of P2T2S18 caused cell death is very surprising. Currently, it is unable to determine what manner this kind of cell death belongs to. No report is found in papers as well. However, this mode of cell death is obviously different from that caused by P2. Together with the results in Example 7, it can conclude that P2T2S18 not only has a biological activity obviously higher than P2, but also has a manner causing cell death obviously different from that of P2.

[5] = test system: Human liver cancer BEL7404 tumor model; assay type: in vivo; conditions: for Tumor inhibitor rate (%): BEL7404, day 21, polypeptides 15 mg/kg sc 2 times per day 21 days, endostatin/endostar 50 mg/kg sc, CTX 30 mg/kg ip 7 days
Procedure: In vitro cultured tumor cells in exponential phase and in good state were formulated to a 100 μl cell suspension containing 5×10^6 tumor cells. The suspension was subcutaneously inoculated to nude mice. Well-grown solid tumors were obtained 15 days later and cut into uniform pieces of about 3 mm under sterile condition. Each nude mouse was inoculated by one piece through a trocar. Mice were re-grouped according the tumor size 10-14 days after inoculation and animals having too large and too small tumor were excluded from the test. The average tumor volume for each group was basically identical. Test drugs were administered to each group according to the experimental protocol. The major axis (a) and minor axis (b) of the tumor were measured twice a week. Animals were sacrificed at the end of the test. The tumor was taken out, weighed and photos were taken. Tumor volume (TV)=½×a×b^2; Relative tumor volume (RTV)=Vt/Vo, wherein Vo is the tumor volume measured before grouping (one day before administration of the test drug), and Vt is the tumor volume measured at each time. Tumor inhibition rate (%)=(1−T/C)×100%, wherein T is the average tumor volume of the treatment group and C is the average tumor volume of the negative control group.
The amino acid sequence of recombination endostatin (“endostatin”) was set forth in SEQ ID NO: 1, and the amino acid sequence of the marketed drug Endostar (“endostar”) was set forth in SEQ ID NO: 10. Human liver cancer BEL7404 tumor model was constructed according to the method described in Example 10. The test contained 6 groups, with 6 animals in each group, except for the negative control group which contained 9 animals. The molar dose of the polypeptides was basically equal to the molar dose of endostatin. The results are shown in FIGS. 11a and 11b and the following Table.

Row | SMILES | IC50 (ug/ml) HUVEC [1] [µg/mL] | Cell Survival (%), 1 mg/ml of polypeptide, HUVEC [1] [%] | IC50 (ug/ml) HepG2 (tumor cell HepG2) [µg/mL] | Cell Survival (%), 1 mg/ml of polypeptide, HepG2 (tumor cell HepG2) [%] | IC50 (LS174T (Colon cancer)) [µg/mL] | Cell Survival (%) at a polypeptide concentration of 1 mg/ml (LS174T (Colon cancer)) [%] | IC50 (SPC-A-1 (lung carcinoma)) [µg/mL] | Cell Survival (%) at a polypeptide concentration of 1 mg/ml (SPC-A-1 (lung carcinoma)) [%] | IC50 (A549 (lung carcinoma)) [µg/mL] | Cell Survival (%) at a polypeptide concentration of 1 mg/ml (A549 (lung carcinoma)) [%] | IC50 [2] [µg/mL] | Cell Survival (%) at a polypeptide concentration of 1 mg/ml [2] [%] | IC50 (BEL7402 (Liver cancer)) [µg/mL] | Cell Survival (%) at a polypeptide concentration of 1 mg/ml (BEL7402 (Liver cancer)) [%] | IC50 (SMMC7721 (Liver cancer)) [µg/mL] | Cell Survival (%) at a polypeptide concentration of 1 mg/ml (SMMC7721 (Liver cancer)) [%] | IC50 [3] [µg/mL] | Cell Survival (%) at a polypeptide concentration of 1 mg/ml [3] [%] | time after being added into the culture medium at which the polypeptide acts on the cells [4] [h] | state of cells at 24 hours [4] | also measured
1 | CC[C@H](C)[C@H](NC(=O)CNC(=O)[C@H](CCCNC(=N)N)NC(=O)[C@H](CCSC)NC(=O)CNC(=O)CNC(=O)[C@H](CO)NC(=O)[C@H](CC(C)C)NC(=O)[C@@H]1CCCN1C(=O)[C@H](CO)NC(=O)[C@H](CC(N)=O)NC(=O)[C@H](CC(C)C)NC(=O)[C@H](C)NC(=O)[C@@H](NC(=O)[C@H](CC(C)C)NC(=O)[C@H](Cc1c[nH]cn1)NC(=O)[C@H](CC(C)C)NC(=O)[C@@H](NC(=O)[C@@H]1CCCN1C(=O)[C@H](CCC(N)=O)NC(=O)[C@H](Cc1ccccc1)NC(=O)[C@H](CC(=O)O)NC(=O)[C@H](CCCNC(=N)N)NC(=O)[C@H](Cc1c[nH]cn1)NC(=O)[C@H](CO)NC(=O)[C@H](Cc1c[nH]cn1)NC(C)=O)C(C)C)C(C)C)C(=O)N[C@@H](CCCNC(=N)N)C(=O)NCC(=O)N[C@@H](C)C(=O)N[C@@H](CC(=O)O)C(N)=O [Polypeptide P2] (Ac-HSHRDFQPVLHLVALNSPLSGGMRGIRGAD-NH2) | 733.4 (≈ 224 µM) | 25 | 1033.4 (≈ 315 µM) | 41 | 1683.8 (≈ 513 µM) | 95 | 1111.8 (≈ 339 µM) | 48 | 1312.2 (≈ 400 µM) | 57 | 863.1 (≈ 263 µM) | 42 | 732.9 (≈ 223 µM) | 20 | 1030.2 (≈ 314 µM) | 42 | 860.9 (≈ 262 µM) | 40 | 4 | basically died | Tumor inhibitor rate (%) [5]: 33.7%
2 | CC[C@H](C)[C@H](NC(=O)CNC(=O)[C@H](CCCNC(=N)N)NC(=O)[C@H](CCSC)NC(=O)CNC(=O)CNC(=O)[C@H](CO)NC(=O)[C@H](CC(C)C)NC(=O)[C@H](CO)NC(=O)[C@H](CO)NC(=O)[C@H](CC(N)=O)NC(=O)[C@H](CC(C)C)NC(=O)[C@H](C)NC(=O)[C@@H](NC(=O)[C@H](CC(C)C)NC(=O)[C@H](Cc1c[nH]cn1)NC(=O)[C@H](CC(C)C)NC(=O)[C@@H](NC(=O)[C@@H]1CCCN1C(=O)[C@H](CCC(N)=O)NC(=O)[C@H](Cc1ccccc1)NC(=O)[C@H](CC(=O)O)NC(=O)[C@H](CCCNC(=N)N)NC(=O)[C@H](Cc1c[nH]cn1)NC(=O)[C@@H](NC(=O)[C@H](Cc1c[nH]cn1)NC(C)=O)[C@@H](C)O)C(C)C)C(C)C)C(=O)N[C@@H](CCCNC(=N)N)C(=O)NCC(=O)N[C@@H](C)C(=O)N[C@@H](CC(=O)O)C(N)=O [Polypeptide P2T2S18] (Ac-HTHRDFQPVLHLVALNSSLSGGMRGIRGAD-NH2) | 66.7 (≈ 20.3 µM) | 2 | 76.9 (≈ 23.4 µM) | 4 | 84.7 (≈ 25.8 µM) | 1 | 80.6 (≈ 24.5 µM) | 16 | 72.5 (≈ 22.1 µM) | 18 | 66.7 (≈ 20.3 µM) | 7 | 64.9 (≈ 19.8 µM) | 4 | 76.9 (≈ 23.4 µM) | 9 | 78.1 (≈ 23.8 µM) | 3 | 2 | only cell debrises left | Cell Survival (%) at a polypeptide concentration of 120 μM ([1]; 6 h, 120): 2%; reduction of IC50 concentration as compared to that of P2 ([1]; HUVEC and HepG2): about 10 folds; IC50 concentration as fraction of IC50 concentration of P2 (SPC-A-1 (lung carcinoma); all seven tumor cell lines of Example 10): less than 1/10; manner of induced cell death ([4]; optical microscope): cells did not shrink. On the contrary, they extremely swelled; Tumor inhibitor rate (%) [5]: 76.7%; toxic reaction ([5]; BEL7404 model, same regimens): did not produce toxic reaction
